Laboratory results as given in paper PMC6776562, “Inhibition of Rac1-dependent forgetting alleviates memory deficits in animal models of Alzheimer’s disease” (Protein & Cell, 2019).
“Also recorded” adds a separate entry of the source.

How the values were obtained:
[1] = test system: MDR-MDCK cell line; test: In vitro blood-brain barrier permeability assay; format: in vitro ADME; details: 5 μmol/L, 37 °C, 90 min
Description: The MDR-MDCK cell line can be used as a fast blood-brain barrier (BBB) model to aid drug discovery (Wang et al., [2005]). In this study, the MDR-MDCK cell line was used to evaluate the permeability coefficients of CS7171 and JKF-034. Briefly, CS7171 and JKF-034 were prepared to final concentrations of 5 μmol/L. The cells were dosed on the basolateral side (B-A) and apical side (A-B) and incubated at 37 °C for 90 min. Each test was performed in duplicate. The apparent permeability coefficient, Papp, was calculated using the following formula: Papp=VA/Area×Time×(drugacceptor,90-min/drugdonor,0-min×Dilution Factor
VA is the volume in the acceptor well, Area is the surface area of the membrane, Time is the total transport time in seconds, [drug]donor, 0-min is the donor drug concentration measured at 0 min; [drug]acceptor, 90-min is the acceptor drug concentration measured at 90 min; dilution factor is the degree of dilution of the donor sample before loading to LC-MS/MS.

[2] = test system: APP/PS1 mice; test: Morris water maze (MWM) spatial learning in AD mice; format: in vivo, mouse; details: APP/PS1 mice (eight-month-old); oral CS7171 50 mg/kg, CS7170 50 mg/kg, JKF-034 40 mg/kg once per day
Description: Mice were treated with EHop-016 (10 mg/kg), CS7170 (50 mg/kg), CS7171 (50 mg/kg), and JKF-034 (40 mg/kg). These drugs were dissolved in saline (0.9% NaCl) containing 0.5% Tween-80 (Sigma P4780). Each mouse received 200 μL of the solution by intragastric administration once per day (administered at 9:00 am). The drug administration was started seven days before the beginning of the Morris water maze (MWM) task and was continued until the end of the assay. All control groups were fed with vehicle solution.
The MWM test, a classic paradigm used to study spatial reference memory, was performed (Vorhees and Williams, [2006]). Briefly, a circular polypropylene water tank (120 cm in diameter) was filled with opaque water and milk (20 °C ± 1 °C) and a transparent platform (15 cm diameter) was submerged (2 cm below the water surface) in the center of one of the four virtually divided quadrants. Distal cues were fixed on the wall of the tank as spatial references. For the classic training paradigm (Figs. 2 and 6), mice were allowed to find the platform within 60 s and to remain on it for at least 5 s. For the modified training paradigm (Fig. 3A), mice were trained over 5 consecutive sessions with a 1-h intervals within one day. After training, mice were returned to their home cages and the memory of the location of the platform was tested at 6 h after training (Fig. 3C–D). A mouse behavior tracking software (ANY-maze software) was used to record data automatically.

[3] = In vitro metabolic stability in monkey liver microsomes; format: in vitro ADME
Description: (§1) Measurements of metabolic stability can be performed with liver microsomes, which are known to contain the major drug-metabolizing enzymes and UDP-glucuronosyltransferase (Baranczewski et al., [2006]). The in vitro metabolic stability levels of CS7171 and JKF-034 were measured using human, monkey, and mouse liver microsomes. The metabolic half-time (T1/2) and intrinsic clearance (Clint) were assayed using LC-MS analysis. Ketanserin is a potent, orally effective antagonist of endogenous serotonin. Its pharmacological profile is well studied (Brogden and Sorkin, [1990]). In this study, we used ketanserin as a control. If the T1/2 of the tested compound was 30–120 min, the compound was considered to show moderate metabolism in liver microsomes. If the T1/2 value was less than 30 min, the compound was considered to be susceptible to metabolism in liver microsomes.

[4] = In vitro metabolic stability in liver microsomes (species not separated); format: in vitro ADME, human, monkey, and mouse; details: all species of Table 4
Description: as §1

[5] = test system: RhoA; test: RhoA activity (RhoA-GTP) by Western blot after drug administration; format: in vivo; details: 7-month-old APP/PS1 mice; two weeks of P.O administration
Description: The hippocampal tissues from human subjects and mice were harvested and stored in a liquid nitrogen tank for biochemical assay. The tissues were homogenized in cold lysis buffer (Merck-Millipore, 20-168). The insoluble debris were removed after centrifugation at 13,000 rpm (for 10 min, at 4 °C). For GTP-bound Rac/Cdc42, lysates were incubated with GST-tagged PAK (p21-activated kinase)-PBD agarose beads (Cytoskeleton, PAK02) overnight at 4 °C. On the second day, the beads were washed three times with lysis buffer before subjecting them to SDS-PAGE (15%) and transferring them onto nitrocellulose membranes (Millipore, HATF00010). The membranes were incubated with primary antibodies (for Rac1: BD Transduction Laboratories, #610650, 1:2,000 dilution; for Cdc42, Santa Cruz Biotechnology, lot No. sc-8401, 1:500 dilution) overnight at 4 °C and with HRP-conjugated goat anti-mouse IgG (Cell Signaling Technology, #7076) for 1 h at room temperature. Intensities of the detected bands were analyzed using ImageJ software (National Institutes of Health). The total amount of Rac1 in the lysate was detected using a routine Western blot procedure. RhoA-GTP levels were measured by using the Rho-GTP monoclonal antibody (New East, lot No. 26904, Dilution: 1:1,000). […] Data information: All values are expressed as mean r SEM.

SMILES | Papp Mean, A-B [1] | Papp Mean, B-A [1] | MWM learning deficit / spatial memory [2] | Clint [3] | T1/2 [3] | T1/2 in liver microsomes [4] | RhoA activity [5]
O=C1NN(c2ccc(Cl)c(Cl)c2)C(=O)C1=Cc1ccc(O)c(N(O)O)c1 [CS7171] | 7.91 10^−6 cm/s | 3.61 10^−6 cm/s | mitigated learning deficits; also recorded: rescued; also recorded: effective | 229.15 mL/min/kg | 8.85 min | less than 30 min | did not affect
O=S(=O)(c1ccccc1)N1CCN(Cc2ccccc2)CC1 [JKF-034] | 57.33 10^−6 cm/s | 32.79 10^−6 cm/s | effective; also recorded: rescued | 401.14 mL/min/kg | 5.05 min | less than 30 min | did not affect
